Assay results taken from paper PMC10824489 (Journal of medicinal chemistry, 2023).
“Also recorded” adds a separate entry of the source.

Experiments:
RPE65 [1] = target: RPE65 (Bos taurus, UniProt Q28175); assay: RPE65 activity assay in vitro; format: biochemical, bovine; details: for inhibition of RPE65 in vitro: concentration range 0.1-50 μM
RPE65 [2] = target: T1, RPE65 (Mus musculus, UniProt Q91ZQ5); details: 10 mg/kg IP; for RPE65 inhibition in vivo (in words): BALB/cJ mice; for 11cRAL level in eye / RE level in eye: four hours of dark adaptation after light exposure, mean ± SD, n=3
T1 sequence (Q91ZQ5 1-533): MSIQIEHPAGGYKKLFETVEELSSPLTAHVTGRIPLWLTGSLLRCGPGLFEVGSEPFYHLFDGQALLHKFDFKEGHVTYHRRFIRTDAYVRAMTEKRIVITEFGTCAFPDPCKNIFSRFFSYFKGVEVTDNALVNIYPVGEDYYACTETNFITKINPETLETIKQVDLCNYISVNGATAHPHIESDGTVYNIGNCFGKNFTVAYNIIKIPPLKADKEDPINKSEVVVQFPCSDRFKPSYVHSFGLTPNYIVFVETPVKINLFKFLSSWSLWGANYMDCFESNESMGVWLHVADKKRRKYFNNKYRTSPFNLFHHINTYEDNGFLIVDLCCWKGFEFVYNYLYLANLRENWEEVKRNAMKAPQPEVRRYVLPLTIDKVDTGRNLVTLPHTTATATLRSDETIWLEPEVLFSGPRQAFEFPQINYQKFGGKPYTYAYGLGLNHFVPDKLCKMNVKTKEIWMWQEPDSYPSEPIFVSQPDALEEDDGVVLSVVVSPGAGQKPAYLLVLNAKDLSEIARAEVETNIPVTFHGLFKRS

in vivo = details: C57BL/6J, mouse, serum, intraperitoneal, 10 mg/kg
CYP-450 enzymes = assay: Liver microsomes assay
VAP-1 = target: T2, VAP-1 (Mus musculus, UniProt O70423); assay: VAP-1 oxidation assay in mouse aorta homogenates; details: for Concentration of 16e in mouse aorta homogenates: substrate 16e 100 μM
T2 sequence (O70423 1-765): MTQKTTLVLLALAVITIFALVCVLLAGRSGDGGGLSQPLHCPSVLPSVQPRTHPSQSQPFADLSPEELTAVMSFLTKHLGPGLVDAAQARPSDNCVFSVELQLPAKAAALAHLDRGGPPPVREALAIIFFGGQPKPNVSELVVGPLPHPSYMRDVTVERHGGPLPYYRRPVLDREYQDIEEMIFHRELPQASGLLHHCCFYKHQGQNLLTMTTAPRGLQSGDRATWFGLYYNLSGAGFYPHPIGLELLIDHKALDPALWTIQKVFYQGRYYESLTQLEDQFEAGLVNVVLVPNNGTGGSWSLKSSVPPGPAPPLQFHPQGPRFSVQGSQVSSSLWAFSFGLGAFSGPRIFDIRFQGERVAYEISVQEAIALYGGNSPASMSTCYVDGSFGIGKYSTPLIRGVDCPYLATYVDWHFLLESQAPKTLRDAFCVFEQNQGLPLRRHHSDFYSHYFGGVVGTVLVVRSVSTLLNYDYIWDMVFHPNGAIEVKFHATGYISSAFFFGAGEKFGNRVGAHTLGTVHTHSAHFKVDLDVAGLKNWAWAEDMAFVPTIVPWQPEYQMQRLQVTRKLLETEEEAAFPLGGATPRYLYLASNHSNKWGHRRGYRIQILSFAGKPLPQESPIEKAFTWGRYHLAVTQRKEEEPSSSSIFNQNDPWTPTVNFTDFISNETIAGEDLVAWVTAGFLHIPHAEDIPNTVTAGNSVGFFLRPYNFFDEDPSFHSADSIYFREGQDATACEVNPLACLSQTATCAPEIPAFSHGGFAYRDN

Sequence of RPE65 (Bos taurus, UniProt Q28175) (Q28175 whole entry): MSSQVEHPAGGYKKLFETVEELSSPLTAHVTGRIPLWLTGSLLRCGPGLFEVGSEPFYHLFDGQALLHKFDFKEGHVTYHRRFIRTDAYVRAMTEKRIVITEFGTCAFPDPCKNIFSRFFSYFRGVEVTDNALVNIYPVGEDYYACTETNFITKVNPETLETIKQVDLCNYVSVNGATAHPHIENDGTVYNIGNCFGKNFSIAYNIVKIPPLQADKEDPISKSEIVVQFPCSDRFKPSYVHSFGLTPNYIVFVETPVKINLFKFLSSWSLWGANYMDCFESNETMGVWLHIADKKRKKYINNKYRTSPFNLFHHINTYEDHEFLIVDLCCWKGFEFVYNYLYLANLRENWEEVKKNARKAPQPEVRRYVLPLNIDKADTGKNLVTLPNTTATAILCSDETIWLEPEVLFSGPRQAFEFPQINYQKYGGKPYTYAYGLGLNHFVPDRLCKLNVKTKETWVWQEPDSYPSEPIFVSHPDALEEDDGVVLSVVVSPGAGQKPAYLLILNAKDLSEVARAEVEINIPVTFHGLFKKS

NC(CO)Cc1ccc(OCC2CCCCC2)cc1 (stereo not shown) [6c, 2-Amino-3-(4-(cyclohexylmethoxy)phenyl)propan-1-ol]
inhibition of RPE65 in vitro (RPE65 [1]): lack of dose-response relationship

CNCCC(O)c1cccc(OCC2CCCCC2)c1 (stereo not shown) [16e, 1-(3-(Cyclohexylmethoxy)phenyl)-3-(methylamino)propan-1-ol]
11cRAL per eye as % of the dark adapted (DA) level (RPE65 [2]; 24 hours post treatment): 53%
RPE65 inhibition in vivo (in words) (RPE65 [2]): potent RPE65 inhibition
concentration at 24 h (in vivo): 0 nM
hepatic clearance relative to 3a (CYP-450 enzymes; Cint ratio): 5.5 times
rate of liver metabolism relative to 3a (CYP-450 enzymes; Vmax ratio): 1.7 times
demethylation to 3a in liver microsomes (CYP-450 enzymes; one-hour exposure, 200 μM): minor amount of demethylation
Concentration of 16e in mouse aorta homogenates (VAP-1; time 0): 100.32 ± 0.95 µM
Concentration of 16e in mouse aorta homogenates (VAP-1; time 1): 101.20 ± 0.89 µM

NC(CCO)c1cccc(OCC2CCCCC2)c1 (stereo not shown) [6a, 3-Amino-3-(3-(cyclohexylmethoxy)phenyl)propan-1-ol]
inhibition of RPE65 in vitro (RPE65 [1]): lack of inhibitory activity; also recorded: no inhibition

O=CC=Cc1cccc(OCC2CCCCC2)c1 [ACU-5201]
Concentration of deaminated product ACU-5201 in mouse aorta homogenates (VAP-1; formed from substrate 3a, time 0): 0.00 ± 0.00 µM
Concentration of deaminated product ACU-5201 in mouse aorta homogenates (VAP-1; formed from substrate 3a, time 1): 19.71 ± 0.29 µM
Concentration of deaminated product ACU-5201 in mouse aorta homogenates (VAP-1; formed from substrate 3a, time 4): 54.81 ± 6.38 µM
Concentration of deaminated product ACU-5201 in mouse aorta homogenates (VAP-1; formed from substrate 16e, time 1): 0.48 ± 0.68 µM
Concentration of deaminated product ACU-5201 in mouse aorta homogenates (VAP-1; formed from substrate 16e, time 4): 3.76 ± 0.29 µM

NC(CO)Cc1cccc(OCC2CCCCC2)c1 (stereo not shown) [6b, 2-Amino-3-(3-(cyclohexylmethoxy)phenyl)propan-1-ol]
inhibition of RPE65 in vitro (RPE65 [1]): no inhibition

CC(CN)Cc1cccc(OCC2CCCCC2)c1 (stereo not shown) [16c, (3-(Cyclohexylmethoxy)phenyl)-2-methylpropan-1-amine]
RPE65 inhibition in vivo (in words) (RPE65 [2]): minor RPE65 inhibition
11cRAL level in eye (RPE65 [2]): 370.5 ± 9.1 pmol/eye
RE level in eye (RPE65 [2]): 123.9 ± 36.4 pmol/eye

CC(CCN)c1cccc(OCC2CCCCC2)c1 (stereo not shown) [16b, 3-(3-(Cyclohexylmethoxy)phenyl)butan-1-amine]
RPE65 inhibition in vivo (in words) (RPE65 [2]): minor RPE65 inhibition
non-specific toxicity observation (RPE65 [2]; all animals, even 24 hours after treatment): impaired body movement
11cRAL level in eye (RPE65 [2]): 253.5 ± 9.0 pmol/eye
RE level in eye (RPE65 [2]): 85.6 ± 12.7 pmol/eye

NCCc1cccc(OCC2CCCCC2)c1 [11b, 2-(3-(Cyclohexylmethoxy)phenyl)ethan-1-amine]
potency towards RPE65 relative to amine 11a (RPE65 [1]; ratio of IC50 values): 7.6 times
RPE65 inhibition in vivo (in words) (RPE65 [2]): did not display hallmarks of inhibited RPE65 activity
